Reference: US20230085307A1, “PYRIDAZINONE COMPOUND AND HERBICIDE” (NISSAN CHEMICAL CORPORATION, priority 2019, published 2023)

Tested on: chickweed
Experiment: Test Example 4: herbicidal effect by soil treatment (Table 19, symbol P)
Format: in vivo, common chickweed (Stellaria media)
Settings: amount of applied herbicide 320 g/ha
How it was run: (§1)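 Three weeks of greenhouse growth at 25° C. to 30° C. followed a uniform surface spray of water-diluted emulsion at a predetermined herbicide amount. Seeds had been sown beforehand under about 1.5 cm of sterilized diluvial soil. Grading followed criteria set out in an earlier test.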

Compound	herbicidal effect on P: chickweed
Cc1nn(C)c(=O)c(-c2c(-c3ccc(OC(F)F)cc3)sc3ccc(F)cc23)c1OC(=O)C1CCCO1 (centres unmarked) [2-289]	5 (Herbicidal rate of 90% or more (almost completely withered))

Tested on: velvetleaf
Experiment: Test Example 5: herbicidal effect by foliage application, plastic box (Table 20, symbol M)
Format: in vivo, velvetleaf (Abutilon theophrasti)
Settings: foliage application, AAH 320 g/ha, evaluated three weeks after application
How it was run: (§2)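 Plants sown in sterilized diluvial soil and grown 14 days in a greenhouse at 25° C to 30° C, then sprayed on the foliage with the compound's emulsion diluted in water to a predetermined herbicide amount. Injury to weeds and crops scored three weeks after application on a visual rating scale.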

Compound	M: velvetleaf, herbicidal effect (criteria 0-5)
Cc1nn(C)c(=O)c(-c2c(-c3ccc(OC(F)F)cc3)sc3ccc(F)cc23)c1OC(=O)C1CCCO1 (centres unmarked) [2-289]	5 (Herbicidal rate of 90% or more (almost completely withered))

Tested on: velvetleaf
Experiment: Test Example 4: herbicidal effect by soil treatment (Table 19, symbol M)
Format: in vivo, velvetleaf (Abutilon theophrasti)
Settings: amount of applied herbicide 320 g/ha
How it was run: as §1

Compound	herbicidal effect on M: velvetleaf
Cc1nn(C)c(=O)c(-c2c(-c3ccc(OC(F)F)cc3)sc3ccc(F)cc23)c1OC(=O)C1CCCO1 (centres unmarked) [2-289]	5 (Herbicidal rate of 90% or more (almost completely withered))

Tested on: oval-leafed pondweed
Experiment: Test Example 1: herbicidal activity, application before weed generation under submerged conditions (Table 16, symbol C)
Format: in vivo, oval-leafed pondweed (Monochoria vaginalis)
Settings: 320 g/ha applied herbicide
How it was run: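 Submerged Wagner pots (alluvial soil, 4 cm water) sown with weed seeds and planted with 2.5-leaf rice seedlings; emulsifiable concentrate diluted in water applied to water surface on sowing day. Held in greenhouse at 25-30 °C; injury scored 0-5 by herbicidal rate after three weeks.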

Compound	Herbicidal effect on C: oval-leafed pondweed (grade 0-5)
Cc1nn(C)c(=O)c(-c2c(-c3ccc(OC(F)F)cc3)sc3ccc(F)cc23)c1OC(=O)C1CCCO1 (centres unmarked) [2-289]	3 (Herbicidal rate of 40% or more and less than 70%)

Tested on: windgrass
Experiment: Test Example 5: herbicidal effect by foliage application, plastic box (Table 20, symbol L)
Format: in vivo, windgrass (Apera spica-venti)
Settings: foliage application, AAH 320 g/ha, evaluated three weeks after application
How it was run: as §2

Compound	L: windgrass, herbicidal effect (criteria 0-5)
Cc1nn(C)c(=O)c(-c2c(-c3ccc(OC(F)F)cc3)sc3ccc(F)cc23)c1OC(=O)C1CCCO1 (centres unmarked) [2-289]	5 (Herbicidal rate of 90% or more (almost completely withered))

Tested on: blackgrass
Experiment: Test Example 4: herbicidal effect by soil treatment (Table 19, symbol J)
Format: in vivo, blackgrass (Alopecurus myosuroides)
Settings: amount of applied herbicide 320 g/ha
How it was run: as §1

Compound	herbicidal effect on J: blackgrass
Cc1nn(C)c(=O)c(-c2c(-c3ccc(OC(F)F)cc3)sc3ccc(F)cc23)c1OC(=O)C1CCCO1 (centres unmarked) [2-289]	5 (Herbicidal rate of 90% or more (almost completely withered))

Tested on: Japanese bulrush
Experiment: Test Example 2: herbicidal activity, application during weed generation under submerged conditions (Table 17, symbol B)
Format: in vivo, Japanese bulrush (Schoenoplectus juncoides)
Settings: AAH 320 g/ha; application during weed generation, submerged conditions
How it was run: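 Steps: fill Wagner pots with alluvial soil; add water to give 4 cm depth; sow the species mixed; grow under glass at 25–30° C.; at 1–2 leaves apply water-diluted emulsion formulation to the water surface at a fixed herbicide amount; score after 3 weeks.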

Compound	herbicidal effect rating, B: Japanese bulrush
Cc1nn(C)c(=O)c(-c2c(-c3ccc(OC(F)F)cc3)sc3ccc(F)cc23)c1OC(=O)C1CCCO1 (centres unmarked) [2-289]	3 (Herbicidal rate of 40% or more and less than 70%)

Tested on: lambsquarters
Experiment: Test Example 5: herbicidal effect by foliage application, plastic box (Table 20, symbol O)
Format: in vivo, lambsquarters (Chenopodium album)
Settings: foliage application, AAH 320 g/ha, evaluated three weeks after application
How it was run: as §2

Compound	O: lambsquarters, herbicidal effect (criteria 0-5)
Cc1nn(C)c(=O)c(-c2c(-c3ccc(OC(F)F)cc3)sc3ccc(F)cc23)c1OC(=O)C1CCCO1 (centres unmarked) [2-289]	5 (Herbicidal rate of 90% or more (almost completely withered))

Tested on: lambsquarters
Experiment: Test Example 4: herbicidal effect by soil treatment (Table 19, symbol O)
Format: in vivo, lambsquarters (Chenopodium album)
Settings: amount of applied herbicide 320 g/ha
How it was run: as §1

Compound	herbicidal effect on O: lambsquarters
Cc1nn(C)c(=O)c(-c2c(-c3ccc(OC(F)F)cc3)sc3ccc(F)cc23)c1OC(=O)C1CCCO1 (centres unmarked) [2-289]	5 (Herbicidal rate of 90% or more (almost completely withered))

Tested on: green foxtail
Experiment: Test Example 4: herbicidal effect by soil treatment (Table 19, symbol G)
Format: in vivo, green foxtail (Setaria viridis)
Settings: amount of applied herbicide 320 g/ha
How it was run: as §1

Compound	herbicidal effect on G: green foxtail
Cc1nn(C)c(=O)c(-c2c(-c3ccc(OC(F)F)cc3)sc3ccc(F)cc23)c1OC(=O)C1CCCO1 (centres unmarked) [2-289]	5 (Herbicidal rate of 90% or more (almost completely withered))

Tested on: Italian ryegrass
Experiment: Test Example 5: herbicidal effect by foliage application, plastic box (Table 20, symbol K)
Format: in vivo, Italian ryegrass (Lolium multiflorum)
Settings: foliage application, AAH 320 g/ha, evaluated three weeks after application
How it was run: as §2

Compound	K: Italian ryegrass, herbicidal effect (criteria 0-5)
Cc1nn(C)c(=O)c(-c2c(-c3ccc(OC(F)F)cc3)sc3ccc(F)cc23)c1OC(=O)C1CCCO1 (centres unmarked) [2-289]	5 (Herbicidal rate of 90% or more (almost completely withered))

Tested on: persian speedwell
Experiment: Test Example 4: herbicidal effect by soil treatment (Table 19, symbol R)
Format: in vivo, Persian speedwell (Veronica persica)
Settings: amount of applied herbicide 320 g/ha
How it was run: as §1

Compound	herbicidal effect on R: persian speedwell
Cc1nn(C)c(=O)c(-c2c(-c3ccc(OC(F)F)cc3)sc3ccc(F)cc23)c1OC(=O)C1CCCO1 (centres unmarked) [2-289]	5 (Herbicidal rate of 90% or more (almost completely withered))

Tested on: southern crabgrass
Experiment: Test Example 4: herbicidal effect by soil treatment (Table 19, symbol F)
Format: in vivo, southern crabgrass (Digitaria ciliaris)
Settings: amount of applied herbicide 320 g/ha
How it was run: as §1

Compound	herbicidal effect on F: southern crabgrass
Cc1nn(C)c(=O)c(-c2c(-c3ccc(OC(F)F)cc3)sc3ccc(F)cc23)c1OC(=O)C1CCCO1 (centres unmarked) [2-289]	5 (Herbicidal rate of 90% or more (almost completely withered))

Tested on: chickweed
Experiment: Test Example 5: herbicidal effect by foliage application, plastic box (Table 20, symbol P)
Format: in vivo, common chickweed (Stellaria media)
Settings: foliage application, AAH 320 g/ha, evaluated three weeks after application
How it was run: as §2

Compound	P: chickweed, herbicidal effect (criteria 0-5)
Cc1nn(C)c(=O)c(-c2c(-c3ccc(OC(F)F)cc3)sc3ccc(F)cc23)c1OC(=O)C1CCCO1 (centres unmarked) [2-289]	5 (Herbicidal rate of 90% or more (almost completely withered))

Tested on: redroot pigweed
Experiment: Test Example 5: herbicidal effect by foliage application, plastic box (Table 20, symbol N)
Format: in vivo, redroot pigweed (Amaranthus retroflexus)
Settings: foliage application, AAH 320 g/ha, evaluated three weeks after application
How it was run: as §2

Compound	N: redroot pigweed, herbicidal effect (criteria 0-5)
Cc1nn(C)c(=O)c(-c2c(-c3ccc(OC(F)F)cc3)sc3ccc(F)cc23)c1OC(=O)C1CCCO1 (centres unmarked) [2-289]	5 (Herbicidal rate of 90% or more (almost completely withered))

Tested on: wild oat
Experiment: Test Example 4: herbicidal effect by soil treatment (Table 19, symbol I)
Format: in vivo, wild oat (Avena fatua)
Settings: amount of applied herbicide 320 g/ha
How it was run: as §1

Compound	herbicidal effect on I: wild oat
Cc1nn(C)c(=O)c(-c2c(-c3ccc(OC(F)F)cc3)sc3ccc(F)cc23)c1OC(=O)C1CCCO1 (centres unmarked) [2-289]	2 (Herbicidal rate of 20% or more and less than 40%)

Tested on: barnyard grass
Experiment: Test Example 4: herbicidal effect by soil treatment (Table 19, symbol H)
Format: in vivo, barnyard grass (Echinochloa crus-galli)
Settings: amount of applied herbicide 320 g/ha
How it was run: as §1

Compound	herbicidal effect on H: barnyard grass
Cc1nn(C)c(=O)c(-c2c(-c3ccc(OC(F)F)cc3)sc3ccc(F)cc23)c1OC(=O)C1CCCO1 (centres unmarked) [2-289]	5 (Herbicidal rate of 90% or more (almost completely withered))
